Data reported in ChEMBL document CHEMBL5584270, “Synthesis and Evaluation of 1,3-Disubstituted Imidazolidine-2,4,5-triones as Inhibitors of Pyruvate Carboxylase” (ACS Med Chem Lett, 2024).
Calls of active or inactive are those of the source. No cut-off for these calls is given here.

These molecules were tested on Pseudomonas syringae (assay: Inhibition of Pseudomonas syringae guanidine carboxylase using urea as substrate at 200 uM by coupled enzyme assay).

Structure (SMILES) | inhibition
O=C(O)CN1C(=O)C(=O)N(Cc2ccccc2)C1=O | inactive
CCOC(=O)CN1C(=O)C(=O)N(c2ccccc2)C1=O | inactive
CN1C(=O)C(=O)N(CC(=O)c2cccs2)C1=O | inactive
CCOC(=O)CN1C(=O)C(=O)N(CCc2ccccc2)C1=O | inactive
CCOC(=O)CCN1C(=O)C(=O)N(c2ccc(F)cc2)C1=O | inactive
CCOC(=O)CN1C(=O)C(=O)N(Cc2ccccc2)C1=O | inactive

More lines, now with the values ahead:

inhibition | Structure (SMILES)
inactive | O=C1C(=O)N(c2ccccc2)C(=O)N1Cc1ccccc1
inactive | COc1ccc(N2C(=O)C(=O)N(Cc3ccccc3)C2=O)cc1
inactive | CCOC(=O)CN1C(=O)C(=O)N(Cc2ccco2)C1=O
inactive | CCOC(=O)CN1C(=O)C(=O)N(CCc2cccs2)C1=O
inactive | CCOC(=O)CN1C(=O)C(=O)N(Cc2cccs2)C1=O
inactive | CCCOC(=O)CN1C(=O)C(=O)N(c2ccccc2)C1=O
inactive | CCOC(=O)CN1C(=O)C(=O)N(c2ccc(F)cc2)C1=O

Organism: Homo sapiens
Assay: Inhibition of MDH (unknown origin)

Structure (SMILES) | inhibition
O=C(O)CN1C(=O)C(=O)N(Cc2ccccc2)C1=O | inactive
CCOC(=O)CN1C(=O)C(=O)N(c2ccccc2)C1=O | inactive
CN1C(=O)C(=O)N(CC(=O)c2cccs2)C1=O | inactive
CCOC(=O)CN1C(=O)C(=O)N(CCc2ccccc2)C1=O | inactive
CCOC(=O)CN1C(=O)C(=O)N(CC(=O)OCC)C1=O | inactive
COC(=O)CN1C(=O)C(=O)N(c2ccccc2)C1=O | inactive
O=C1C(=O)N(c2ccccc2)C(=O)N1CCc1ccccc1 | inactive
CCOC(=O)CCN1C(=O)C(=O)N(c2ccc(F)cc2)C1=O | inactive
COC(=O)CCN1C(=O)C(=O)N(Cc2ccccc2)C1=O | inactive
CCOC(=O)CN1C(=O)C(=O)N(Cc2ccccc2)C1=O | inactive
CC(c1ccccc1)N1C(=O)C(=O)N(c2ccccc2)C1=O (configuration not stated) | inactive

Results, then the molecule that gave them:

inhibition | Structure (SMILES)
inactive | O=C1C(=O)N(c2ccc(Br)cc2)C(=O)N1Cc1ccccc1
inactive | O=C1C(=O)N(c2ccccc2)C(=O)N1CCc1cccs1
inactive | O=C1C(=O)N(c2ccccc2)C(=O)N1Cc1ccccc1
inactive | O=C1C(=O)N(C2CCCc3ccccc32)C(=O)N1c1ccccc1 (configuration not stated)
inactive | COc1ccc(N2C(=O)C(=O)N(Cc3ccccc3)C2=O)cc1
inactive | CCOC(=O)CN1C(=O)C(=O)N(Cc2ccco2)C1=O
inactive | CCOC(=O)CN1C(=O)C(=O)N(CCc2cccs2)C1=O
inactive | CCOC(=O)CN1C(=O)C(=O)N(Cc2cccs2)C1=O
inactive | CCCOC(=O)CN1C(=O)C(=O)N(c2ccccc2)C1=O
inactive | CCOC(=O)CN1C(=O)C(=O)N(c2ccc(F)cc2)C1=O

Each molecule was assayed against T1, Pyruvate carboxylase (Staphylococcus aureus (strain Mu50 / ATCC 700699), UniProt A0A0H3JRU9) (assay: Inhibition of Staphylococcus aureus pyruvate carboxylase by FVB based high-throughput fixed time assay).
T1 sequence (A0A0H3JRU9 whole entry): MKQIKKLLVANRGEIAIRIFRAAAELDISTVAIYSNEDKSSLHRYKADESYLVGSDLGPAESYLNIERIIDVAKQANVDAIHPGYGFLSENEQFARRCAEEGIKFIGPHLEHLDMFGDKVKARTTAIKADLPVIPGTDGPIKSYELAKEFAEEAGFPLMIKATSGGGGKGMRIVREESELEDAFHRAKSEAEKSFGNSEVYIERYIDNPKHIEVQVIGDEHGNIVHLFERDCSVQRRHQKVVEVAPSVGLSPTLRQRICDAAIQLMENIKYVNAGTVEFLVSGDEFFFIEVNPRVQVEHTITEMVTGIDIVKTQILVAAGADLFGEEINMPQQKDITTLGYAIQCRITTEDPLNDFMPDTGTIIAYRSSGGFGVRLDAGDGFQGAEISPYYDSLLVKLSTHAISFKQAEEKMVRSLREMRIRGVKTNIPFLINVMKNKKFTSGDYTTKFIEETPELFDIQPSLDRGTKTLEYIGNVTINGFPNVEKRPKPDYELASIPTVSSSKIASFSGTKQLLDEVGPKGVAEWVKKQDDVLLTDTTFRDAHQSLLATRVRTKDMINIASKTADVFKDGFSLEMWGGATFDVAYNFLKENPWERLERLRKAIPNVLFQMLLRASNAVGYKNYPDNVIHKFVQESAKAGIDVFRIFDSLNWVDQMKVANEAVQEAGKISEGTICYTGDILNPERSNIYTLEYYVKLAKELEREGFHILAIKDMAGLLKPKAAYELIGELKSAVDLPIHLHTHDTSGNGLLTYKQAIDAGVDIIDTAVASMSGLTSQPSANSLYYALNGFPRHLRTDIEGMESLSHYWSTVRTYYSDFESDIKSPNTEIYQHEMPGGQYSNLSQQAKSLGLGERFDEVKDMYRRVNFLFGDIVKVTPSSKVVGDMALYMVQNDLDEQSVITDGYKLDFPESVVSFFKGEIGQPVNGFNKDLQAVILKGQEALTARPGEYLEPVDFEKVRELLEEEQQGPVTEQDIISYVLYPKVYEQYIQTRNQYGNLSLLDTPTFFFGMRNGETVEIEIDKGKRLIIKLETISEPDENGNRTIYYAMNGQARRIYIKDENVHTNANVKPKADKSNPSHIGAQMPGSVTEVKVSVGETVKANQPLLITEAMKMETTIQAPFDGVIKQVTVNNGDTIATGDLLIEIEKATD

IC50 [µM] | Structure (SMILES)
35 | CN1C(=O)C(=O)N(CC(=O)c2cccs2)C1=O

The molecules below were run against T1, Pyruvate carboxylase (assay: Mixed type inhibition of Staphylococcus aureus pyruvate carboxylase assessed as inhibition constant pretreated with pyruvate followed by ATP, HCO3- and NADH addition by steady state kinetic analysis).

Structure (SMILES) | Ki [µM]
O=C(O)CN1C(=O)C(=O)N(Cc2ccccc2)C1=O | 9
CN1C(=O)C(=O)N(CC(=O)c2cccs2)C1=O | 5.2
CCOC(=O)CN1C(=O)C(=O)N(Cc2ccccc2)C1=O | 0.58

More lines, now with the values ahead:

Ki [µM] | Structure (SMILES)
24 | O=C1C(=O)N(c2ccccc2)C(=O)N1Cc1ccccc1
1.8 | CCOC(=O)CN1C(=O)C(=O)N(Cc2cccs2)C1=O

These molecules were tested against T1, Pyruvate carboxylase (assay: Mixed type inhibition of Staphylococcus aureus pyruvate carboxylase assessed as inhibition constant pretreated with ATP followed by pyruvate, HCO3- and NADH addition by steady state kinetic analysis).

Ki [µM] | Structure (SMILES)
7 | CCOC(=O)CN1C(=O)C(=O)N(Cc2ccccc2)C1=O

Each molecule was assayed against T1, Pyruvate carboxylase (assay: Inhibition of Staphylococcus aureus Pyruvate carboxylase using pyruvate, HCO3-, ATP and NADH as substrate assessed as oxaloacetate formation by measuring NADH oxidation by spectrophotometry based malate dehydrogenase coupled enzyme assay).

Structure (SMILES) | IC50 [µM]
O=C(O)CN1C(=O)C(=O)N(Cc2ccccc2)C1=O | 30
CCOC(=O)CN1C(=O)C(=O)N(c2ccccc2)C1=O | 5.1
CN1C(=O)C(=O)N(CC(=O)c2cccs2)C1=O | 45
CCOC(=O)CN1C(=O)C(=O)N(CCc2ccccc2)C1=O | 9.3
CCOC(=O)CN1C(=O)C(=O)N(CC(=O)OCC)C1=O | 9
COC(=O)CN1C(=O)C(=O)N(c2ccccc2)C1=O | 3.5
O=C1C(=O)N(c2ccccc2)C(=O)N1CCc1ccccc1 | 370
CCOC(=O)CCN1C(=O)C(=O)N(c2ccc(F)cc2)C1=O | 29
COC(=O)CCN1C(=O)C(=O)N(Cc2ccccc2)C1=O | 68
CCOC(=O)CN1C(=O)C(=O)N(Cc2ccccc2)C1=O | 7.3
CC(c1ccccc1)N1C(=O)C(=O)N(c2ccccc2)C1=O (configuration not stated) | 35

More lines, in order of falling IC50, values ahead:

IC50 [µM] | Structure (SMILES)
290 | O=C1C(=O)N(c2ccc(Br)cc2)C(=O)N1Cc1ccccc1
92 | O=C1C(=O)N(c2ccccc2)C(=O)N1CCc1cccs1
64 | O=C1C(=O)N(c2ccccc2)C(=O)N1Cc1ccccc1
59 | O=C1C(=O)N(C2CCCc3ccccc32)C(=O)N1c1ccccc1 (configuration not stated)
17 | COc1ccc(N2C(=O)C(=O)N(Cc3ccccc3)C2=O)cc1
12 | CCOC(=O)CN1C(=O)C(=O)N(Cc2ccco2)C1=O
7.9 | CCOC(=O)CN1C(=O)C(=O)N(CCc2cccs2)C1=O
5.2 | CCOC(=O)CN1C(=O)C(=O)N(Cc2cccs2)C1=O
5 | CCCOC(=O)CN1C(=O)C(=O)N(c2ccccc2)C1=O
3.4 | CCOC(=O)CN1C(=O)C(=O)N(c2ccc(F)cc2)C1=O

The molecules below were run against Macrophage metalloelastase (Homo sapiens) (UniProt P39900) (assay: Inhibition of MMP-12 (unknown origin) at 50 uM).
Sequence of Macrophage metalloelastase (Homo sapiens) (P39900 106-470 limits assumed): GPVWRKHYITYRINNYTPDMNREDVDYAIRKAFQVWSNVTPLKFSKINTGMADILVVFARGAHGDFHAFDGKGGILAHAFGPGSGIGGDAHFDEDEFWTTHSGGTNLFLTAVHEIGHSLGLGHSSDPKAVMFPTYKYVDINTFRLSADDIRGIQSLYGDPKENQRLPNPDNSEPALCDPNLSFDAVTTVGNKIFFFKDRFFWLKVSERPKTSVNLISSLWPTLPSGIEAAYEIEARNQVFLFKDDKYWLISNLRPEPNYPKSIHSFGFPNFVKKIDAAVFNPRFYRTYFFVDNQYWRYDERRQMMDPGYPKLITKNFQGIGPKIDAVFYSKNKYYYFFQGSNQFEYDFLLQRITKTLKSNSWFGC

Structure (SMILES) | inhibition
O=C(O)CN1C(=O)C(=O)N(Cc2ccccc2)C1=O | inactive
CCOC(=O)CN1C(=O)C(=O)N(c2ccccc2)C1=O | inactive
CN1C(=O)C(=O)N(CC(=O)c2cccs2)C1=O | inactive
CCOC(=O)CN1C(=O)C(=O)N(CCc2ccccc2)C1=O | inactive
CCOC(=O)CCN1C(=O)C(=O)N(c2ccc(F)cc2)C1=O | inactive
CCOC(=O)CN1C(=O)C(=O)N(Cc2ccccc2)C1=O | inactive

Other lines, results leading:

inhibition | Structure (SMILES)
inactive | O=C1C(=O)N(c2ccccc2)C(=O)N1Cc1ccccc1
inactive | COc1ccc(N2C(=O)C(=O)N(Cc3ccccc3)C2=O)cc1
inactive | CCOC(=O)CN1C(=O)C(=O)N(Cc2ccco2)C1=O
inactive | CCOC(=O)CN1C(=O)C(=O)N(CCc2cccs2)C1=O
inactive | CCOC(=O)CN1C(=O)C(=O)N(Cc2cccs2)C1=O
inactive | CCCOC(=O)CN1C(=O)C(=O)N(c2ccccc2)C1=O
inactive | CCOC(=O)CN1C(=O)C(=O)N(c2ccc(F)cc2)C1=O

These molecules were tested against T1, Pyruvate carboxylase (assay: Non-competitive inhibition of Staphylococcus aureus pyruvate carboxylase assessed as inhibition constant pretreated with ATP followed by pyruvate, HCO3- and NADH addition by steady state kinetic analysis).

Structure (SMILES) | Ki [µM]
O=C(O)CN1C(=O)C(=O)N(Cc2ccccc2)C1=O | 140
CN1C(=O)C(=O)N(CC(=O)c2cccs2)C1=O | 38

Now from value to molecule:

Ki [µM] | Structure (SMILES)
150 | O=C1C(=O)N(c2ccccc2)C(=O)N1Cc1ccccc1
14 | CCOC(=O)CN1C(=O)C(=O)N(Cc2cccs2)C1=O

Each molecule was assayed against Carbonic anhydrase 2 (Homo sapiens) (UniProt P00918) (assay: Inhibition of human CA2 at 200 uM).

Structure (SMILES) | inhibition
O=C(O)CN1C(=O)C(=O)N(Cc2ccccc2)C1=O | inactive
CCOC(=O)CN1C(=O)C(=O)N(c2ccccc2)C1=O | inactive
CN1C(=O)C(=O)N(CC(=O)c2cccs2)C1=O | inactive
CCOC(=O)CN1C(=O)C(=O)N(CCc2ccccc2)C1=O | inactive
CCOC(=O)CCN1C(=O)C(=O)N(c2ccc(F)cc2)C1=O | inactive
CCOC(=O)CN1C(=O)C(=O)N(Cc2ccccc2)C1=O | inactive

The remaining lines, values ahead:

inhibition | Structure (SMILES)
inactive | O=C1C(=O)N(c2ccccc2)C(=O)N1Cc1ccccc1
inactive | COc1ccc(N2C(=O)C(=O)N(Cc3ccccc3)C2=O)cc1
inactive | CCOC(=O)CN1C(=O)C(=O)N(Cc2ccco2)C1=O
inactive | CCOC(=O)CN1C(=O)C(=O)N(CCc2cccs2)C1=O
inactive | CCOC(=O)CN1C(=O)C(=O)N(Cc2cccs2)C1=O
inactive | CCCOC(=O)CN1C(=O)C(=O)N(c2ccccc2)C1=O
inactive | CCOC(=O)CN1C(=O)C(=O)N(c2ccc(F)cc2)C1=O
